Read-outs that look alike come from different tables or passages of the source. Each block holds one compound with its values, some of them ahead of it.
How the values were obtained:
Format in all cases: biochemical
[1] = target: Human Jak2 kinase domain (Homo sapiens (Human), UniProt O60674); experiment: Jak2 Inhibition Assay (Omnia kinase assay)
Excerpt: The assays described in Examples C, D, E and F for the determination of JAK1, JAK2, JAK3 and Tyk2 kinase activity, respectively, utilized the Omnia® Kinase fluorescence peptide substrate-based technology (Invitrogen). The specific components of the assay mixture are described in Examples C, D and E. […] Two-μL aliquots of these were transferred to a fresh plate for a ten-fold intermediate dilution with assay buffer. […] Human Jak2 kinase domain comprising amino acids 808-1132 was purchased from Invitrogen Corporation, Carlsbad, Calif.

[2] = target: Human Tyk2 kinase domain (Homo sapiens (Human), UniProt P29597); experiment: Tyk2 Inhibition Assay (Omnia kinase assay); settings: Table 2; 500 μM ATP
Sequence of Human Tyk2 kinase domain (P29597 886-1187): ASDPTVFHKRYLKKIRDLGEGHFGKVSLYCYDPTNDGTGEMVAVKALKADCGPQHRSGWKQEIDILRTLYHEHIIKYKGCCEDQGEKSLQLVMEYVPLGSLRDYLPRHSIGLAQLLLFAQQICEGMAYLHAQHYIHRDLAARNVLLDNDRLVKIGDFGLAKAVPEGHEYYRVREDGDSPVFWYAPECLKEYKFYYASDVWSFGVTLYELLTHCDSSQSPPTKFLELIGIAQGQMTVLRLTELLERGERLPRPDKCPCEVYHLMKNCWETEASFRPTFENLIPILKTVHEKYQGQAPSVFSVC
Experimental: (§1) The assays described in Examples C, D, E and F for the determination of JAK1, JAK2, JAK3 and Tyk2 kinase activity, respectively, utilized the Omnia® Kinase fluorescence peptide substrate-based technology (Invitrogen). […] The reactions were therefore read at excitation 360 nm and emission was measured at 485 nm every 50 seconds for 45 minutes using a PerkinElmer EnVision Multilabel Plate Reader.
(§2) The final buffer conditions for each of the JAK1, JAK2, JAK3 and Tyk2 assays were as follows: 25 mM HEPES, pH 7.4, 10 mM MgCl2, 0.01% Triton X-100 and 1 mM DTT.
(§3) Compounds were prepared at 50× the final concentration in DMSO by conducting 3-fold serial dilutions from a 500-μM or 1000-μM intermediate dilution to give a 10-point dosing curve having a high dose of 10 or 20 μM. Two-μL aliquots of these were transferred to a fresh plate for a ten-fold intermediate dilution with assay buffer. Five-μL aliquots of the diluted compounds were then transferred to 20-μL of assay mixtures described in Examples C, D, E and F for a final concentration of DMSO of 2%. A standard or reference compound was typically included on each assay plate to validate that plate. For each plate, percent of control (POC) values were calculated for each well according to the following equation: […]
(§4) IC50's were estimated from the POC's using a standard 4-parameter logistic model: […]

[3] = target: GST-tagged human Jak1 kinase domain (Homo sapiens (Human), UniProt P23458); experiment: Jak1 Inhibition Assay (Omnia kinase assay); settings: Table 2; 500 μM ATP
Sequence of GST-tagged human Jak1 kinase domain (P23458 866-1154): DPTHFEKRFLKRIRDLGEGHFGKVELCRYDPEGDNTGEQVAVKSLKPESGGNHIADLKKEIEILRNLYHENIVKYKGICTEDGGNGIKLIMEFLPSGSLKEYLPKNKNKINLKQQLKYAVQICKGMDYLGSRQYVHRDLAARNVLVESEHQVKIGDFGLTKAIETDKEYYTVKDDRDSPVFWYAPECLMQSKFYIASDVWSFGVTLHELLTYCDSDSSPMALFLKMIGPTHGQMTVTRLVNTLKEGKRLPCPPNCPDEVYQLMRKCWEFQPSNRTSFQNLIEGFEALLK
Experimental: as §1, §2, §3, §4

[4] = target: GST-tagged human Jak3 kinase domain (Homo sapiens (Human), UniProt P52333); experiment: Jak3 Inhibition Assay (Omnia kinase assay); settings: Table 2; 500 μM ATP
Sequence of GST-tagged human Jak3 kinase domain (P52333 781-1124): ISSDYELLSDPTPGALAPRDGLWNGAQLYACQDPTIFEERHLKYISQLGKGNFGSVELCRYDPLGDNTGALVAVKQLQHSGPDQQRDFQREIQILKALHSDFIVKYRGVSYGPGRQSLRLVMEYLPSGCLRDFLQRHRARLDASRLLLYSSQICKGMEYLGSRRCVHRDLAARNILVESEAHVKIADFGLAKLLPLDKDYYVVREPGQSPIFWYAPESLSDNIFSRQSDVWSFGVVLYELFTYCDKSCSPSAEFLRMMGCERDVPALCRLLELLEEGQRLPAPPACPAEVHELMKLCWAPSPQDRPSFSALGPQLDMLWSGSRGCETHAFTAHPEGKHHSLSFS
Experimental: as §1, §2, §3, §4

[5] = target: histidine-tagged recombinant human TrkA, cytoplasmic domain (Homo sapiens (Human), UniProt P04629); experiment: TrkA ELISA Assay; settings: Table 1, 500 μM ATP, read-out: TrkA Enzyme IC50
Sequence of histidine-tagged recombinant human TrkA, cytoplasmic domain (P04629 440-796): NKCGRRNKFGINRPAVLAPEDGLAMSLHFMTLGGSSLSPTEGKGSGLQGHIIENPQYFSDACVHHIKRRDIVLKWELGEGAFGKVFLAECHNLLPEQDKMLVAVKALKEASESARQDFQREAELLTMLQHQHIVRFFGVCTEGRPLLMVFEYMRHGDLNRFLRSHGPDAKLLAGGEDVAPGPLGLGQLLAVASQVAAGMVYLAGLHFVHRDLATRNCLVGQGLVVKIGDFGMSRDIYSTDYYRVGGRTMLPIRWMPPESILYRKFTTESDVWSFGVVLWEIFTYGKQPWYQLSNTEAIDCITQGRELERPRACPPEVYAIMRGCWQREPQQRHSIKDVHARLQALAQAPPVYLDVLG
Experimental: An enzyme-linked immunosorbant assay (ELISA) was used to assess TrkA kinase activity in the presence of inhibitors. […] The assay buffer consisted of 25 mM MOPS pH 7.5, 0.005% (v/v) Triton X-100 and 5 mM MgCl2. The reaction mixture was removed from the plate by washing with PBS containing 0.1% (v/v) Tween 20. […] After the addition of 1M phosphoric acid, the chromogenic substrate color intensity was quantitated via absorbance at 450 nm.

[6] = read-out: Jak2 Enzyme % inhibition at 1000 nM, Table 1, 1000 nM test compound

Sequence of Human Jak2 kinase domain (O60674 808-1132): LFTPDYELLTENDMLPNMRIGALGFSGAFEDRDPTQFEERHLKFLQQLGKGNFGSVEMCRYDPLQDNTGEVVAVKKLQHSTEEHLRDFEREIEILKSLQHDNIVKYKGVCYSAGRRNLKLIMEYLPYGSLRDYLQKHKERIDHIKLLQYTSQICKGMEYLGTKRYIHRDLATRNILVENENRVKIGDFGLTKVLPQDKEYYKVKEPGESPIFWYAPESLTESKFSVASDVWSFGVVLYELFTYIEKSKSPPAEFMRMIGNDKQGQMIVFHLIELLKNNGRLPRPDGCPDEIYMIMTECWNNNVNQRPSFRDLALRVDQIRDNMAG

IC50 [2]: > 1000 nM
SMILES: COc1ncc(F)cc1[C@H]1CCCN1c1ccn2ncc(C(=O)N[C@H]3CC[C@H](O)CC3)c2n1 [Example 140, 5-((R)-2-(5-fluoro-2-methoxypyridin-3-yl)pyrrolidin-1-yl)-N-((trans)-4-hydroxycyclohexyl)pyrazolo[1,5-a]pyrimidine-3-carboxamide]

IC50 [3]: > 1000 nM
IC50 [4]: > 1000 nM
IC50 [2]: > 1000 nM
SMILES: Cc1ncc(F)cc1[C@H]1CCCN1c1ccn2ncc(C(=O)N[C@H]3CC[C@H](O)CC3)c2n1 [Example 194, 5-((R)-2-(5-fluoro-2-methylpyridin-3-yl)pyrrolidin-1-yl)-N-((trans)-4-hydroxycyclohexyl)pyrazolo[1,5-a]pyrimidine-3-carboxamide]

IC50 [5]: 4.8 nM
IC50 ([1]; Table 1, 500 μM ATP, >1000 nM when >50% inhibition not observed at 1000 nM, read-out: Jak2 Enzyme IC50): > 1000 nM
SMILES: Cc1ncc(F)cc1[C@H]1CCCN1c1ccn2ncc(C(=O)N[C@@H]3CCC[C@H]3O)c2n1 [Example 197, 5-((R)-2-(5-fluoro-2-methylpyridin-3-yl)pyrrolidin-1-yl)-N-((1R,2R)-2-hydroxycyclopentyl)pyrazolo[1,5-a]pyrimidine-3-carboxamide]

More lines, now with the values behind:

SMILES: O=C(N[C@H]1CC[C@H](O)CC1)c1cnn2ccc(N3CCC[C@@H]3c3cncc(F)c3)nc12 [Example 99, 5-((R)-2-(5-fluoropyridin-3-yl)pyrrolidin-1-yl)-N-((trans)-4-hydroxycyclohexyl)pyrazolo[1,5-a]pyrimidine-3-carboxamide]
inhibition at 1 µM [1, 6]: 45.8%

SMILES: O=C(N[C@@H]1C2CC[C@@H](C2)[C@@H]1CO)c1cnn2ccc(N3CCC[C@@H]3c3cncc(F)c3)nc12 [Example 138, 5-((R)-2-(5-fluoropyridin-3-yl)pyrrolidin-1-yl)-N-((2R,3S,4S)-3-(hydroxymethyl)bicyclo[2.2.1]heptan-2-yl)pyrazolo[1,5-a]pyrimidine-3-carboxamide]
inhibition at 1 µM ([1]; read-out: Jak2 Enzyme % inhibition at 1000 nM): 10%

SMILES: O=C(N[C@H]1CC[C@@H](O)CC1)c1cnn2ccc(N3CCC[C@@H]3c3cncc(F)c3)nc12 [Example 100, 5-((R)-2-(5-fluoropyridin-3-yl)pyrrolidin-1-yl)-N-((cis)-4-hydroxycyclohexyl)pyrazolo[1,5-a]pyrimidine-3-carboxamide]
inhibition at 1 µM [1, 6]: 13.8%

— patent US9782415B2, “Substituted pyrazolo[1,5-a]pyrimidine compounds as Trk kinase inhibitors” (Array BioPharma, Inc., priority 2009, dated 2017)
